Measured values from BindingDB's records for PubMed 34726055 (Central University of Punjab, 2022).

Target: Pyruvate kinase PKLR (Homo sapiens) (UniProt P30613)
Test: Inhibition of human erythrocytes pyruvate kinase

Sequence of Pyruvate kinase PKLR (Homo sapiens) (P30613 whole entry, looked up): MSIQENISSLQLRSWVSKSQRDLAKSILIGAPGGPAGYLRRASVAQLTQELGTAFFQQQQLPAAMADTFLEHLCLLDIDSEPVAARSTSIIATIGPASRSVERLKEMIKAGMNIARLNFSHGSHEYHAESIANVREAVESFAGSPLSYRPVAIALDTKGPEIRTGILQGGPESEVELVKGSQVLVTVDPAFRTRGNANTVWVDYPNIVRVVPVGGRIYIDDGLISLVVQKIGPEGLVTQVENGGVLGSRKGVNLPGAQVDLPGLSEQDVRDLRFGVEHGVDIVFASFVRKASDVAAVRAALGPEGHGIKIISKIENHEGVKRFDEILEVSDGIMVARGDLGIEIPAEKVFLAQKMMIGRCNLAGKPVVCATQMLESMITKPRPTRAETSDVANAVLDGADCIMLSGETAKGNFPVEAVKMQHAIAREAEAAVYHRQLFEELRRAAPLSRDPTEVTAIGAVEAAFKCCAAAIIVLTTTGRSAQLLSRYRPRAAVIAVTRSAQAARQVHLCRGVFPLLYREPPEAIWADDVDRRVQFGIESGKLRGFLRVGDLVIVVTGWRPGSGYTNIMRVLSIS

IC50: 8 µM
SMILES: O=C(O)c1ccc(SC2=NS(=O)(=O)c3ccccc32)cc1
